According to patent publication US20230365632A1, “A GROUP OF PEPTIDE DERIVATIVE OMICSYNINS WITH ANTIVIRAL ACTIVITY AND USES THEREOF” (INSTITUTE OF MEDICINAL BIOTECHNOLOGY CHINESE ACADEMY OF …, priority 2020, published 2023):
In brackets after ≈: the same amount, converted by molar mass. Several values for one entry are separate records, joined by “and”; a condition that tells them apart may be missing. Identical values can stand only once. Like-named read-outs stand apart in the source and are kept apart here. *1 amine or outer side, *2 acyl side, *3 side chain or, on linkers, in order; H or OH if unused. Where a SMILES comes first, the peptide text is derived from it. [ ]: non-standard residue; d: D form. Phe(ol) = N[CH](CO)Cc1ccccc1; CO = O=C([*:1])[*:2]

Tests used:
[1] = tested on: influenza virus A/wuhan/359/95 (H3N2); experiment: organism not typed; type: cell-based
[2] = tested on: coronavirus HCoV-229E; experiment: CPE inhibition assay against HCoV-229E in Huh7.5 cells; type: cell-based
[3] = in vitro; details: dog
[4] = in vitro; details: human
[5] = tested on: coronavirus HCoV-OC43; experiment: qRT-PCR of HCoV-OC43 N protein mRNA in C3A cells; type: cell-based; details: 24 hours, corrected for GAPDH, read-out: IC50 for inhibitory activity of coronavirus HCoV-OC43
[6] = tested on: Madin-Darby canine kidney cells (MDCK)
[7] = tested on: Huh7.5 cells; experiment: 50% toxicity concentration (TC50) by CPE assay in Huh7.5 cells; details: read-out: TC50, Table 10
[8] = tested on: influenza virus A/Fort Monmouth/1/47 (H1N1); experiment: organism not typed; type: cell-based; details: MDCK, read-out: A/Fort Monmouth/1/47(H1N1) IC50
[9] = MDCK, read-out: A/Wuhan/359/1995 (H3N2) IC50
[10] = Human coronavirus 229E, Huh7.5, read-out: HCoV-229E IC50

CC(C)C(NC(=O)C(CCCNC(=N)N)NC(=O)NC(Cc1ccccc1)C(=O)O)C(=O)NC(CO)Cc1ccccc1 (stereo not drawn) [Omicsynin A3, Chymostatinol A] ({Phe-CO}-Arg-Val-[Phe(ol)]; configuration not given here)
IC50 [1, 9]: 87.9 ± 23.7 µM | IC50 [2, 10]: 57.4 ± 15.6 µM | CC50 [3]: > 336 µM | CC50 [4]: > 168 µM

CC(C)[C@H](NC(=O)[C@H](CCCNC(=N)N)NC(=O)N[C@@H](Cc1ccccc1)C(=O)O)C(=O)N[C@H](C=O)CCCNC(=N)N [Omicsynin B4, Antipain] ({Phe-CO}-Arg-Val-Arg-aldehyde)
IC50 ([1]; Table 9; CPE method; mean ± SD, three repeats; read-out: A/Wuhan/359/1995 (H3N2) IC50): 2.43 ± 0.71 µM | IC50 ([2]; Table 10, Huh7.5 cells, 100 TCID50, read-out: HCoV-229E IC50): 0.89 ± 0.22 µM | IC50 [5]: 28.7 µM | CC50 ([6]; read-out: TC50, Table 9, CPE method): > 331 µM | CC50 [7]: > 165 µM

CCOC(=O)C1=C[C@@H](OC(CC)CC)[C@H](NC(C)=O)[C@@H](N)C1 [Oseltamivir Phosphate]
IC50 ([1]; MDCK, Table 5; HP20 eluates and positive drugs; read-out: A/Wuhan/359/1995 (H3N2) IC50): 2.01 µg/mL | TC50 ([6]; Table 5, HP20 eluates and positive drugs): 577.35 µg/mL

CCOC(=O)C1=C[C@@H](OC(CC)CC)[C@H](NC(C)=O)[C@@H](N)C1 [Oseltamivir]
IC50 ([1]; MDCK, Table 1; positive drug; read-out: A/wuhan/359/95(H3N2) IC50): 1.63 µg/mL | IC50 ([1]; MDCK, Table 3; positive drug; read-out: A/Wuhan/359/1995 (H3N2) IC50): 2.01 µg/mL | IC50 ([1]; MDCK, Table 4; positive drug; read-out: A/Wuhan/359/1995 (H3N2) IC50): 1.77 µg/mL | IC50 ([1]; MDCK; Table 2; positive drugs; read-out: A/wuhan/359/95(H3N2) IC50): 1.63 µg/mL | IC50 ([1]; MDCK; read-out: A/Wuhan/359/1995 (H3N2) IC50): 2.47 µg/mL | IC50 ([8]; Table 2, positive drugs): 2.01 µg/mL (≈ 6.43 µM) | TC50 ([6]; Table 1, positive drug): 1260 µg/mL (≈ 4030 µM) | TC50 ([6]; Table 2, positive drugs): 1260 µg/mL (≈ 4030 µM) | TC50 ([6]; Table 3, positive drug): 577.4 µg/mL (≈ 1850 µM) | TC50 ([6]; Table 4, positive drug): >1000 µg/mL | TC50 ([6]; Table 6, 50E-C18 components and positive drugs): 577.35 µg/mL (≈ 1850 µM)

NC(=O)c1ncn([C@@H]2O[C@H](CO)[C@@H](O)[C@H]2O)n1 [RBV, ribavirin]
IC50 [1, 9]: 2.47 µg/mL and 13.2 µM | IC50 ([1]; MDCK, read-out: A/wuhan/359/95(H3N2) IC50): 1.63 µg/mL | IC50 [8]: 0.82 µg/mL (≈ 3.36 µM) | IC50 [2, 10]: 25.1 ± 6.1 µM | CC50 [3]: > 819 µM | CC50 [4]: > 410 µM

CC(C)[C@H](NC(=O)[C@H](CCCNC(=N)N)NC(=O)N[C@@H](Cc1ccccc1)C(=O)O)C(=O)N[C@H](C=O)CCCNC(=N)N [antipain, Antipain] ({Phe-CO}-Arg-Val-Arg-aldehyde)
IC50 ([1]; MDCK, Table 9; CPE method; mean ± SD, three repeats; read-out: A/Wuhan/359/1995 (H3N2) IC50): 3.16 ± 0.94 µM | IC50 [2, 10]: 1.57 ± 0.46 µM | CC50 [3]: > 331 µM | CC50 [4]: > 165 µM

CC(C)C[C@H](NC(=O)[C@@H](NC(=O)N[C@@H](Cc1ccccc1)C(=O)O)[C@@H]1CCN=C(N)N1)C(=O)N[C@H](C=O)Cc1ccccc1 [chymostatin, Chymostatin]
IC50 [1, 9]: 329 µM | IC50 [2, 10]: 23.7 ± 5.66 µM | CC50 [3]: > 329 µM | CC50 [4]: > 165 µM
